Assay results reported in US20100068208A1, “Degranulation inhibitor” (priority 2005, published 2010).

Assays:
Assay type in all cases: cell-based
[1] = system: human mast cell line LAD 2; assay: Expression of TNF-α, CCL-2 or CCL-5 mRNA in LAD 2 (TaqMan PCR); settings: various TGR12 ligands experiment, 1 μM, two hours after stimulation
Experimental: Human mast cell line LAD 2 was cultured in StemPro-34 medium (Invitrogen) supplemented with 100 ng/mL of stem cell factor (Immuno-Biological Laboratories Co., Ltd.). […] A 750 μL aliquot was inoculated on a 24-well plate, which was then allowed to stand in a CO2 incubator at 37° C. for 30 minutes. […] The assay was performed for the respective reaction conditions in n=3. The plate was ice-chilled 0.5, 2, 8 and 24 hours after to stop the activation of LAD 2. After centrifugation at 300×g for 5 minutes, total RNA was extracted from the precipitated cells using RNeasy Mini Kit (Qiagen) according to the protocol attached. Further in the experiments where expression levels upon stimulation by various TGR12 ligands were analyzed, LAD 2 was centrifuged at 300×g for 5 minutes and the cells precipitated were counted and suspended in the medium at 1.33×10^6 cells/mL. A 750 μL aliquot was inoculated on a 24-well plate, which was allowed to stand in a CO2 incubator at 37° C. for 30 minutes. […] The assay was performed for the respective reaction conditions in n=3. Two hours after, the plate was ice-chilled to stop the activation of LAD 2. After centrifugation at 300×g for 5 minutes, total RNA was extracted from the precipitated cells using RNeasy Mini Kit (Qiagen) according to the protocol attached. The total RNA obtained as described above was concentrated using ethachinmate according to the protocol attached and dissolved in RNase-free H2O, Next, using the solution corresponding to […] of total RNA, reverse transcription was performed by the following procedure using SuperScript II reverse transcriptase (Invitrogen) to synthesize single stranded cDNA. To the total RNA solution, 0.1 μg of random primer (Invitrogen) and 1 μL of 10 mM dNTP (Invitrogen) were added and then RNase-free H2O was added to make the whole volume 12 μL. The mixture was then incubated at 70° C. for 10 minutes and ice-cooled for a minute. After 4 μL of 5× First-Strand Buffer (attached to SuperScript II reverse transcriptase), 2 μL of 0.1M DTT (attached to SuperScript II reverse transcriptase), 1 μL of RNaseOUT (Invitrogen) and 1 μL of SuperScript II reverse transcriptase were added, the mixture was incubated at 42° C. for 50 minutes, then at 70° C. for 15 minutes and ice-cooled for 5 minutes. The thus obtained cDNA was purified using ethachinmate in accordance with the protocol attached and dissolved in Tris-EDTA buffer (Fluka).
In TaqMan PCR below, hTNFalpha-tF (SEQ ID NO: 33) and hTNFalpha-tR (SEQ ID NO: 34) were used as primers for human TNF-α quantification, hTNFalpha-tP (SEQ ID NO: 35) as a probe and hTNFalpha-standard (SEQ ID NO: 36) as a standard. For human CCL-5 quantification, hCCL5-tF (SEQ ID NO: 37) and hCCL5-tR (SEQ ID NO: 38) were used as primers, hCCL5-tP (SEQ ID NO: 39) as a probe and hCCL5 standard (SEQ ID NO: 40) as a standard. For human CCL-2 quantification, hCCL2-tF (SEQ ID NO: 41) and hCCL2-tR (SEQ ID NO: 42) were used as primers, hCCL2-tP (SEQ ID NO: 43) as a probe and hCCL2 standard (SEQ ID NO: 44) as a standard.
TaqMan PCR was performed in n=2 for each sample in a liquid volume of 15 μl using 12.5 ng of total RNA as a template. The reaction solution was composed of 900 nM primer, 250 nM probe and ½ volume of TaqMan Universal PCR Master Mix (Applied Biosystems). The reaction and analysis were performed by ABI PRISM 7900HT Sequence Detection System (Applied Biosystems). After keeping warm at 50° C. for 2 minutes and then at 95° C. for 10 minutes, the reaction cycle was set in one cycle to include 95° C. for 15 seconds and 60° C. for 1 minute and repeating the cycle 40 times.

RBL-2H3 = assay: Intracellular calcium increasing activity in RBL2H3 (FLIPR); parameters: unit not given here
Experimental: (§1) RBL-2H3 (hereinafter RBL2H3) was incubated in α-MEM (Invitrogen) supplemented with 10% fetal calf serum. Vector plasmid pcDNA3.1 for animal cell expression, in which the nucleotide sequence containing the initiation codon to the termination codon of human TGR12 (DNA having the nucleotide sequence represented by SEQ ID NO: 32) was incorporated, was stably expressed in RBL-2H3 to establish human TGR12-expressed RBL-2H3 cell line (hereinafter RBL2H3-TGR12). RBL2H3-TGR12 was incubated in α-MEM (Invitrogen) supplemented with 10% fetal calf serum and 200 μg/mL of Geneticin.
(§2) The intracellular calcium increasing activity was assayed as follows. RBL2H3 and RBL2H3-TGR12 were plated in a 96-well plate at a density of 40,000 cells/well and incubated overnight. The medium was then discarded and 100 μL/well of 4 μM Fluo3-AM (Dojin Kagaku)-containing assay buffer [Hank's Balanced Salt Solution (Invitrogen), 20 mM HEPES (Dojin Kagaku) and 2.5 mM Probenecid (Sigma)] was added. The mixture was allowed to stand for an hour at 37° C. Various TGR12 (Peptide Institute, Inc.) or calcium ionophore A23187 (Wako Pure Chemical) was diluted in 0.05% CHAPS-containing assay buffer. After the cells were washed with the assay buffer, fluorescence emitted with changes in intracellular calcium was measured using FLIPR (Molecular Device). A sample, 50 μL, was added at a rate of 50 μL/sec. 10 seconds after initiation of the assay. Fluorescence was measured every 1 second during the first 60 seconds and every 6 seconds during the next 120 seconds. The highest fluorescence intensity during 3 minutes was made the maximum activity under the stimulation conditions, which was taken as an average of 3 wells. The EC50 values were calculated using Graphpad PRISM 4 (Graphpad Software).

human TGR12 = molecular target: T1, human TGR12 (Homo sapiens, UniProt Q96LB1); assay: Intracellular calcium increasing activity in RBL2H3-TGR12 (FLIPR)
T1 construct: expressed in transfected cells
T1 sequence (Q96LB1 1-330): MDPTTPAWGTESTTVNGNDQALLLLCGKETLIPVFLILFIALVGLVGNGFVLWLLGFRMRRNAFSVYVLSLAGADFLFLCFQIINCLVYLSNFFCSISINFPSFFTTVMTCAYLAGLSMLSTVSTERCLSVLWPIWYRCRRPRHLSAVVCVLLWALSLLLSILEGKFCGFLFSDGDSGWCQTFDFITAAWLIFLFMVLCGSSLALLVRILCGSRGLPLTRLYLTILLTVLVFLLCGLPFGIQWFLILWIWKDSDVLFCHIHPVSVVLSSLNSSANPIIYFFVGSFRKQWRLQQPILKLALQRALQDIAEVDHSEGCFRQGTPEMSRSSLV
Experimental: as §1, §2

Row | Compound | expression level of CCL-2 in LAD 2 [1] [copies] | expression level of CCL-5 in LAD 2 [1] [copies] | expression level of TNF-α in LAD 2 [1] [copies] | maximum activity in the calcium increasing effect (RBL-2H3; RBL2H3, 1 nM) | maximum activity in the calcium increasing effect (RBL-2H3; RBL2H3, 10 nM) | maximum activity in the calcium increasing effect (RBL-2H3; RBL2H3, 100 nM) | maximum activity in the calcium increasing effect (RBL-2H3; RBL2H3, 1 μM) | maximum activity in the calcium increasing effect (RBL-2H3; RBL2H3, 10 μM) | maximum activity in the calcium increasing effect (human TGR12; RBL2H3-TGR12, 1 nM) | maximum activity in the calcium increasing effect (human TGR12; RBL2H3-TGR12, 10 nM) | maximum activity in the calcium increasing effect (human TGR12; RBL2H3-TGR12, 100 nM) | maximum activity in the calcium increasing effect (human TGR12; RBL2H3-TGR12, 1 μM) | maximum activity in the calcium increasing effect (human TGR12; RBL2H3-TGR12, 10 μM)
1 | CC[C@H](C)[C@H](NC(=O)CNC(=O)[C@H](CC(=O)O)NC(=O)[C@H](CO)NC(=O)[C@@H](N)Cc1c[nH]cn1)C(=O)N[C@@H](Cc1ccccc1)C(=O)N[C@H](C(=O)N[C@@H](CC(=O)O)C(=O)N[C@@H](CO)C(=O)N[C@@H](Cc1ccc(O)cc1)C(=O)N[C@@H](CO)C(=O)N[C@@H](CCCNC(=N)N)C(=O)N[C@@H](Cc1ccc(O)cc1)C(=O)N[C@@H](CCCNC(=N)N)C(=O)N[C@@H](CCCCN)C(=O)N[C@@H](CCC(N)=O)C(=O)N[C@@H](CCSC)C(=O)N[C@@H](C)C(=O)N[C@H](C(=O)N[C@@H](CCCCN)C(=O)N[C@@H](CCCCN)C(=O)N[C@@H](Cc1ccc(O)cc1)C(=O)N[C@@H](CC(C)C)C(=O)N[C@@H](C)C(=O)N[C@@H](C)C(=O)N[C@H](C(=O)N[C@@H](CC(C)C)C(N)=O)C(C)C)C(C)C)[C@@H](C)O [PACAP-27] | 3809873 | 48242 | 219597 | 47 | 37 | 63 | 59 | 45 | 40 | 29 | 5300 | 11494 | 12667
2 | CSCC[C@H](NC(=O)[C@H](CCCNC(=N)N)NC(=O)[C@@H](N)CC(=O)O)C(=O)N1CCC[C@H]1C(=O)N[C@H]1CSSC[C@@H](C(=O)N[C@@H](CCCCN)C(=O)O)NC(=O)[C@H](CO)NC(=O)[C@H](CO)NC(=O)[C@H](Cc2ccccc2)NC(=O)[C@H]([C@@H](C)O)NC(=O)[C@H](CCCCN)NC(=O)[C@H](Cc2c[nH]c3ccccc23)NC(=O)[C@H](Cc2ccccc2)NC(=O)[C@H](Cc2ccccc2)NC(=O)[C@H](CC(N)=O)NC(=O)[C@H](CCCNC(=N)N)NC1=O [cortistatin-17] | 2944622 | 47322 | 163551 | 67 | 78 | 54 | 49 | 52 | −2 | 33 | 1574 | 11193 | 12762
3 | CC(C)C[C@H](NC(=O)[C@H](C)NC(=O)[C@H](Cc1c[nH]c2ccccc12)NC(=O)[C@H](CCCCN)NC(=O)[C@H](CC(N)=O)NC(=O)[C@H](Cc1c[nH]c2ccccc12)NC(=O)[C@H](CCCCN)NC(=O)[C@H](CCCCN)NC(=O)[C@H](CCCNC(=N)N)NC(=O)[C@@H](N)Cc1ccccc1)C(=O)N[C@@H](CO)C(=O)N[C@@H](CCCNC(=N)N)C(N)=O [PAMP-12, proadrenomedullin N-terminal 20 peptide (9-20)] | 1143248 | 34566 | 8918 | 52 | 52 | 35 | 44 | 43 | 41 | 2088 | 11110 | 12039 | 12331
4 | CC[C@H](C)[C@H](NC(=O)[C@H](CO)NC(=O)[C@H](CC(N)=O)NC(=O)[C@H](CC(C)C)NC(=O)[C@H](Cc1ccc(O)cc1)NC(=O)[C@H](CCCCN)NC(=O)[C@H](CCCCN)NC(=O)[C@@H](NC(=O)[C@H](C)NC(=O)[C@H](CCSC)NC(=O)[C@H](CCC(N)=O)NC(=O)[C@H](CCCCN)NC(=O)[C@H](CCCNC(=N)N)NC(=O)[C@H](CC(C)C)NC(=O)[C@H](CCCNC(=N)N)NC(=O)[C@@H](NC(=O)[C@H](Cc1ccc(O)cc1)NC(=O)[C@H](CC(N)=O)NC(=O)[C@H](CC(=O)O)NC(=O)[C@@H](NC(=O)[C@H](Cc1ccccc1)NC(=O)[C@@H](NC(=O)[C@H](C)NC(=O)[C@H](CC(=O)O)NC(=O)[C@H](CO)NC(=O)[C@@H](N)Cc1c[nH]cn1)C(C)C)[C@@H](C)O)[C@@H](C)O)C(C)C)C(=O)N[C@@H](CC(C)C)C(=O)N[C@@H](CC(N)=O)C(N)=O [VIP, vasoactive intestinal polypeptide] | 3630286 | 45015 | 176630 | – | – | – | – | – | – | – | – | – | –
